From patent US9714247B2, “Multiple kinase pathway inhibitors” (Mannkind Corporation, priority 2012, dated 2017)
Like-named read-outs stand apart in the source and are kept apart here.

Columns and labels:
CDK2/cyclinA(h) = CDK2/cyclinA(h) (Homo sapiens (Human), UniProt P24941); assay: IC50 profiler radiometric kinase assay (Millipore); assay type: biochemical; conditions: CMGC
p70S6K(h) = p70S6K(h) (Homo sapiens, UniProt P23443); assay: IC50 profiler radiometric kinase assay (Millipore); assay type: biochemical; conditions: AGC
BTK = BTK (Homo sapiens (Human), UniProt Q06187); conditions: read-out: BTK IC50
DoHH2 = assay: CellTiter-Glo proliferation/viability assay; assay type: cell-based, human; conditions: Homo sapiens
Ramos = assay: CellTiter-Glo proliferation/viability assay; assay type: cell-based, human; conditions: Homo sapiens, Ramos, read-out: Ramos EC50
Lyn = Lyn (Homo sapiens (Human), UniProt P07948); assay: biochemical
GSK3β(h) = GSK3β(h) (Homo sapiens (Human), UniProt P49841); assay: IC50 profiler radiometric kinase assay (Millipore); assay type: biochemical; conditions: CMGC
Experimental: (§1) In order to determine the relative enzyme selectivity of these amino naphthyridinones, representative amino naphthyridinones were evaluated for their ability to inhibit various kinases. Kinases were selected for a broad representation of the kinome (see FIG. 2: Kinases Evaluated). Compounds were evaluated using the IC50 profiler assay (Millipore), which measures substrate phosphorylation via γ-^33P-ATP transfer by the kinase of interest.
(§2) The assay directly measures the catalytic incorporation of phosphate onto kinase substrates. The kinase protein is incubated in buffer with substrate and γ-^33P-ATP. The reaction is initiated by the addition of the Mg-ATP mix. At the end of the reaction incubation time, the reaction is stopped by the addition of phosphoric acid solution and 10 μL of the reaction is spotted onto a filtermat, washed, dried and counted in scintillation fluid. […] In particular the amino naphthyridinones inhibited Abl and some but not all tested members of the Tec and Src families of tyrosine kinases, but not tyrosine-like kinases or the non-tyrosine kinases tested (See FIG. 2: Compound 1). […] Other known drugs with activity against BTK and SFKs, such as dasatinib and bosutinib, have activity against a broader array of tyrosine kinases as well as inhibiting non-tyrosine kinases (See FIG. 2: Dasatinib).

IGF-1R(h) = IGF-1R(h) (Homo sapiens (Human), UniProt P08069); assay: IC50 profiler radiometric kinase assay (Millipore); assay type: biochemical; conditions: TK
Experimental: as §1, §2

BTK(h) = BTK(h) (Homo sapiens (Human), UniProt Q06187); assay: IC50 profiler radiometric kinase assay (Millipore); assay type: biochemical; conditions: TK
Experimental: as §1, §2

MEK1(h) = MEK1(h) (Homo sapiens (Human), UniProt Q02750); assay: IC50 profiler radiometric kinase assay (Millipore); assay type: biochemical; conditions: STE
Experimental: as §1, §2

MAPK1(h) = MAPK1(h) (Homo sapiens (Human), UniProt P27361); assay: IC50 profiler radiometric kinase assay (Millipore); assay type: biochemical; conditions: CMGC
Experimental: as §1, §2

BTK(R28H)(h) = BTK(R28H)(h) (Homo sapiens (Human), UniProt Q06187, R28H); assay: IC50 profiler radiometric kinase assay (Millipore); assay type: biochemical; conditions: TK
Experimental: as §1, §2

Src(1-530)(h) = Src(1-530)(h) (Homo sapiens (Human), UniProt P12931); assay: IC50 profiler radiometric kinase assay (Millipore); assay type: biochemical; conditions: TK
Experimental: as §1, §2

cSRC(h) = cSRC(h) (Homo sapiens (Human), UniProt P12931); assay: IC50 profiler radiometric kinase assay (Millipore); assay type: biochemical; conditions: TK
Experimental: as §1, §2

Hck(h) = Hck(h) (Homo sapiens (Human), UniProt P08631); assay: IC50 profiler radiometric kinase assay (Millipore); assay type: biochemical; conditions: TK
Experimental: as §1, §2

Itk(h) = Itk(h) (Homo sapiens (Human), UniProt Q08881); assay: IC50 profiler radiometric kinase assay (Millipore); assay type: biochemical; conditions: TK
Experimental: as §1, §2

c-Kit(D816V)(h) = c-Kit(D816V)(h) (Homo sapiens (Human), UniProt P10721, D816V); assay: IC50 profiler radiometric kinase assay (Millipore); assay type: biochemical; conditions: TK
Experimental: as §1, §2

MKK6(h) = MKK6(h) (Homo sapiens (Human), UniProt P52564); assay: IC50 profiler radiometric kinase assay (Millipore); assay type: biochemical; conditions: STE
Experimental: as §1, §2

Tie2(h) = Tie2(h) (Homo sapiens (Human), UniProt Q02763); assay: IC50 profiler radiometric kinase assay (Millipore); assay type: biochemical; conditions: TK
Experimental: as §1, §2

Bmx(h) = Bmx(h) (Homo sapiens (Human), UniProt P51813); assay: IC50 profiler radiometric kinase assay (Millipore); assay type: biochemical; conditions: TK
Experimental: as §1, §2

CDK7/cyclinH/MAT1(h) = CDK7/cyclinH/MAT1(h) (Homo sapiens (Human), UniProt P50613); assay: IC50 profiler radiometric kinase assay (Millipore); assay type: biochemical; conditions: CMGC
Experimental: as §1, §2

JAK2(h) = JAK2(h) (Homo sapiens (Human), UniProt O60674); assay: IC50 profiler radiometric kinase assay (Millipore); assay type: biochemical; conditions: TK
Experimental: as §1, §2

Hck(h) activated = Hck(h) activated (Homo sapiens (Human), UniProt P08631); assay: IC50 profiler radiometric kinase assay (Millipore); assay type: biochemical; conditions: TK; activated = phosphorylated
Experimental: as §1, §2

PDK1(h) = PDK1(h) (Homo sapiens (Human), UniProt O15530); assay: IC50 profiler radiometric kinase assay (Millipore); assay type: biochemical; conditions: AGC
Experimental: as §1, §2

CK1δ(h) = CK1δ(h) (Homo sapiens (Human), UniProt P48730); assay: IC50 profiler radiometric kinase assay (Millipore); assay type: biochemical; conditions: CK1
Experimental: as §1, §2

JAK3(h) = JAK3(h) (Homo sapiens (Human), UniProt P52333); assay: IC50 profiler radiometric kinase assay (Millipore); assay type: biochemical; conditions: TK
Experimental: as §1, §2

Lyn(h) = Lyn(h) (Homo sapiens (Human), UniProt P07948); assay: IC50 profiler radiometric kinase assay (Millipore); assay type: biochemical; conditions: TK
Experimental: as §1, §2

Aurora-A(h) = Aurora-A(h) (Homo sapiens (Human), UniProt O14965); assay: IC50 profiler radiometric kinase assay (Millipore); assay type: biochemical; conditions: MISC
Experimental: as §1, §2

[1] = test system: PARP cleavage in DoHH-2 cells; assay: PARP cleavage by Western blotting; assay type: cell-based, human; conditions: DoHH-2 cells, 2, 6 and 24 hr, low micromolar concentrations
Experimental: Additionally, using an exemplary amino naphthyridinones, Compound 1, […] PARP cleavage has been observed. PARP is downstream of the caspase cascade; its cleavage is an indicator or caspase-dependent apoptosis. PARP cleavage was assessed by Western blotting exponentially growing cultures of DoHH-2 cells that had been cultured overnight (18 h) in 1% FBS containing RPMI1640 media. These cells were washed, counted and plated with and without Compound 1 for 2, 6, and 24 hr. Cells were centrifuged and cell pellets were lysed using RIPA buffer from CST. Protein lysates were quantified using the BCA protein assay kit from Pierce and used in a standard Western blotting procedure. Anti-PARP antibody was obtained from CST and used as per the manufacturer's protocol. […] Thus amino naphthyridinones can be used to induce apoptosis in tumor cells.

[2] = DOHH-2, 48 hrs, read-out: DoHH2 EC50

Chain of Bmx(h) (P51813 whole entry): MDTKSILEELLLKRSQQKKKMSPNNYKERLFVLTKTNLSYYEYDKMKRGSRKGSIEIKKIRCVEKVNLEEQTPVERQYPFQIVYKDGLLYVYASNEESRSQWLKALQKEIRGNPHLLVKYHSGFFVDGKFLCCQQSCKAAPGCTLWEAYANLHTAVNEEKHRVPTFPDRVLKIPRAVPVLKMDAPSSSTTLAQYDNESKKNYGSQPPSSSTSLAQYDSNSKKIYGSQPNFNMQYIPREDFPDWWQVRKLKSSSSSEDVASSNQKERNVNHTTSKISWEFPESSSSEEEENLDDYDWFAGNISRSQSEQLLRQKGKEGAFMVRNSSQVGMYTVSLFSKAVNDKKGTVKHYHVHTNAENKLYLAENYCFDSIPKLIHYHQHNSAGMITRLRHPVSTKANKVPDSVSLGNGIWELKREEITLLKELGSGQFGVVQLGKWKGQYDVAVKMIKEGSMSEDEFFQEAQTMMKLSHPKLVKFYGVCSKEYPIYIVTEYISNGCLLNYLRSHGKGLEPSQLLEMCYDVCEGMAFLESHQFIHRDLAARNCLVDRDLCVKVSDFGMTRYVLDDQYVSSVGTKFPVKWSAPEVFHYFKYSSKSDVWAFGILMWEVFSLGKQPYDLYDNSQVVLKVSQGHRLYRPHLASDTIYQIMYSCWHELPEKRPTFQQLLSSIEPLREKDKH
Chain of MAPK1(h) (P27361 whole entry): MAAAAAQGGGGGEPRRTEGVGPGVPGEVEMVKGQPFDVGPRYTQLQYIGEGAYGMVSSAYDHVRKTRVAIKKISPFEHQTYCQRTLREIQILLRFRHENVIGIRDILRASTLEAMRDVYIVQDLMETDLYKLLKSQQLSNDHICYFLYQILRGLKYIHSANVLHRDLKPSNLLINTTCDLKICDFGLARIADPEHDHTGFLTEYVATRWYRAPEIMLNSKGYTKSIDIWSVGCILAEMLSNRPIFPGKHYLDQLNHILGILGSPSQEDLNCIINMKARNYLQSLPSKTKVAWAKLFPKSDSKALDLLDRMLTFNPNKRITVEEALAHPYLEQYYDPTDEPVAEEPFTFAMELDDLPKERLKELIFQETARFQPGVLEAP
Chain of CDK7/cyclinH/MAT1(h) (P50613 whole entry): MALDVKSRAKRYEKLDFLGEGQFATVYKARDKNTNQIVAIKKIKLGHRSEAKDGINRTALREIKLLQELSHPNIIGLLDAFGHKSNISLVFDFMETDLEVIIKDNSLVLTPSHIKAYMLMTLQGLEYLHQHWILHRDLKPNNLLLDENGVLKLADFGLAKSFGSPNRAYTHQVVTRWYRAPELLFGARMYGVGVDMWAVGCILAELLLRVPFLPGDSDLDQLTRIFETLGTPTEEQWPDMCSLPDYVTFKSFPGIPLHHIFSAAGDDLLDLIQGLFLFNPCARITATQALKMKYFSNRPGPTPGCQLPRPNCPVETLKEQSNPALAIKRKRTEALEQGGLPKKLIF
Chain of CDK7/cyclinH/MAT1(h) (P51946 whole entry partner): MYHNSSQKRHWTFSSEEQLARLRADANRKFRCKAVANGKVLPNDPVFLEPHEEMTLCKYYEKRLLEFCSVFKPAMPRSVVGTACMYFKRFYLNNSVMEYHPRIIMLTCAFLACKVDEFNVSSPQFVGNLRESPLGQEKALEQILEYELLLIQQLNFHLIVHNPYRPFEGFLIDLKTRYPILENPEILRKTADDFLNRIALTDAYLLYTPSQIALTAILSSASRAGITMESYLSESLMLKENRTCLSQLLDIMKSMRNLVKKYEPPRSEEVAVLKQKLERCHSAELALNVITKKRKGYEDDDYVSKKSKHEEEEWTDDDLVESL
Chain of CDK7/cyclinH/MAT1(h) (P51948 whole entry partner): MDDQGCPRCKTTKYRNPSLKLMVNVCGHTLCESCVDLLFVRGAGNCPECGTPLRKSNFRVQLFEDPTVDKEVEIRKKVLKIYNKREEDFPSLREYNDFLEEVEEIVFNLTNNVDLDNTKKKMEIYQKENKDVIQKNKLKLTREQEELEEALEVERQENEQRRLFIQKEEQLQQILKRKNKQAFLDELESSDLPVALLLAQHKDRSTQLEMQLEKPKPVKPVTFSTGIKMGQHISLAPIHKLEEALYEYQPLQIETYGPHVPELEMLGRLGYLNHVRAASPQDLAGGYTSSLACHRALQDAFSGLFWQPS
Chain of Hck(h) activated (P08631 whole entry): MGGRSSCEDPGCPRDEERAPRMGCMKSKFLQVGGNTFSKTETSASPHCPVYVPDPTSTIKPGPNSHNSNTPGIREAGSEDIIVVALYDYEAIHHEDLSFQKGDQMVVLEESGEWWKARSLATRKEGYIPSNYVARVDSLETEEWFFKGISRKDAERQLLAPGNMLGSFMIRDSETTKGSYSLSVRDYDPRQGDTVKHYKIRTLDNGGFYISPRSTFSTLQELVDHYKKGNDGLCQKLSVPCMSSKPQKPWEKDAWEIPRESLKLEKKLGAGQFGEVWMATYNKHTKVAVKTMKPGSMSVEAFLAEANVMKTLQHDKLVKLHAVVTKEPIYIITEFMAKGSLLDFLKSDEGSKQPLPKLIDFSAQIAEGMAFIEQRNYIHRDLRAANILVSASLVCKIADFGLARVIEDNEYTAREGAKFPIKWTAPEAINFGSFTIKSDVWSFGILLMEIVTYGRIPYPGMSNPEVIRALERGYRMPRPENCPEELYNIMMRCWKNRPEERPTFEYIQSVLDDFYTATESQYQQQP
Chain of Hck(h) (P08631 whole entry): as above
Chain of BTK(R28H)(h) (Q06187 whole entry R28H): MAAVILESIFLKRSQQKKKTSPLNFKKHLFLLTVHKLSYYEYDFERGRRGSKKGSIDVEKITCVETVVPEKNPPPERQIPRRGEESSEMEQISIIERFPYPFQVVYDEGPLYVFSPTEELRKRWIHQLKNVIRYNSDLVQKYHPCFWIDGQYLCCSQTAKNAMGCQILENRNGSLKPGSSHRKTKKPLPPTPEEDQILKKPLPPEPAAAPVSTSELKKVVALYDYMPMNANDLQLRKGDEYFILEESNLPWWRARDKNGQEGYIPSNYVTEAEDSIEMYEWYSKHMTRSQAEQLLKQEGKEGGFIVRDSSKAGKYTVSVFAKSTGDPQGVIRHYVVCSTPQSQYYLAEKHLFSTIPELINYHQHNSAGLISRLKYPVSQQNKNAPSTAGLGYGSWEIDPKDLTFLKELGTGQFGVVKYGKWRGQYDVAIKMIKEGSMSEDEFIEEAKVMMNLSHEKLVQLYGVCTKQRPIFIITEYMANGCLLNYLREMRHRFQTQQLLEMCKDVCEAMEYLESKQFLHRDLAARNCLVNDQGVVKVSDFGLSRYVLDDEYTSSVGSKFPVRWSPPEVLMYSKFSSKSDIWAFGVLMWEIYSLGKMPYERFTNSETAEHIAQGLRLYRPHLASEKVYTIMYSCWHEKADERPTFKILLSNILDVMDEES
Chain of Lyn(h) (P07948 whole entry): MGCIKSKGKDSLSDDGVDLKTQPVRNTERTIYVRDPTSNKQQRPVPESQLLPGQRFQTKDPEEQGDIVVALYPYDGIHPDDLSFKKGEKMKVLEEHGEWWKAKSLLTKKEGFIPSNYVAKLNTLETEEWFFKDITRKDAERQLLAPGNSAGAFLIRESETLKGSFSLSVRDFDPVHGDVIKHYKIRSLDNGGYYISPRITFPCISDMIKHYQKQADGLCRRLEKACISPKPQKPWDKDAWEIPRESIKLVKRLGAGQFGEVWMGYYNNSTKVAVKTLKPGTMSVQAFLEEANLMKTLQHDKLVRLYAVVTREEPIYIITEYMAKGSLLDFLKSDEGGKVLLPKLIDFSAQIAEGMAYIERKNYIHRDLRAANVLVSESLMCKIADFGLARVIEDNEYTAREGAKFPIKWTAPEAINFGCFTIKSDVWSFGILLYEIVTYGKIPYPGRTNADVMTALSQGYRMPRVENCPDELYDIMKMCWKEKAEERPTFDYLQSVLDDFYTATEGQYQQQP
Chain of Lyn (P07948 whole entry): as above
Chain of BTK(h) (Q06187 whole entry): as the sequence (Q06187 whole entry R28H) above, with H28R counted along it
Chain of BTK (Q06187 whole entry): as the sequence (Q06187 whole entry R28H) above, with H28R counted along it
Chain of CK1δ(h) (P48730 whole entry): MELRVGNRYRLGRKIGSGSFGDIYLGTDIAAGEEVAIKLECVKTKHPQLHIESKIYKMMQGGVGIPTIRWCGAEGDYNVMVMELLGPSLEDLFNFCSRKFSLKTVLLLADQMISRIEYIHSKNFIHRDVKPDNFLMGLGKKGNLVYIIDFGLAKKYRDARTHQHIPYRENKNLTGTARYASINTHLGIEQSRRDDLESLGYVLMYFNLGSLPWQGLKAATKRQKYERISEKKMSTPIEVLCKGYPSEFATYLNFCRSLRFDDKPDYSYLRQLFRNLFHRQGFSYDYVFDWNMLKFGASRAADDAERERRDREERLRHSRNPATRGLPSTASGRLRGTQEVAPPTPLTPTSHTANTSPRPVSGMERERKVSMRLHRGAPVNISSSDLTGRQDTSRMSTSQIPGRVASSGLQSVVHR

| Compound | IC50 (CDK2/cyclinA(h)) [nM] | IC50 (p70S6K(h)) [nM] | IC50 (BTK) [nM] | EC50 (DoHH2; [2]) [nM] | IC50 (GSK3β(h)) [nM] | IC50 (IGF-1R(h)) [nM] | IC50 (BTK(h)) [nM] | IC50 (MEK1(h)) [nM] | IC50 (MAPK1(h)) [nM] | IC50 (BTK(R28H)(h)) [nM] | IC50 (Src(1-530)(h)) [nM] | IC50 (cSRC(h)) [nM] | IC50 (Hck(h)) [nM] | IC50 (Itk(h)) [nM] | IC50 (c-Kit(D816V)(h)) [nM] | IC50 (MKK6(h)) [nM] | IC50 (Tie2(h)) [nM] | IC50 (Bmx(h)) [nM] | IC50 (CDK7/cyclinH/MAT1(h)) [nM] | IC50 (JAK2(h)) [nM] | also measured |
| --- | --- | --- | --- | --- | --- | --- | --- | --- | --- | --- | --- | --- | --- | --- | --- | --- | --- | --- | --- | --- | --- |
| CCN(CC)CCOc1ccc(Nc2cc3c(cn2)cc(-c2ccccc2)c(=O)n3CC)nc1 [Compound 1, 7-[5-(2-Diethylamino-ethoxy)-pyridin-2-ylamino]-1-ethyl-3-phenyl-1H-[1, 6]naphthyridin-2-one] | > 1000 | > 1000 | < 100 | < 1000 | > 1000 | > 1000 | 10 to 100 | > 1000 | > 1000 | 500 to 1000 | < 10 | < 10 | 10 to 100 | > 1000 | 100 to 500 | > 1000 | 500 to 1000 | < 10 | > 1000 | > 1000 | EC50 (DoHH2; DOHH-2, read-out: EC50 (Proliferation)): < 1000 nM; EC50 (Ramos; 48 hrs): 1000 to 10000 nM; IC50 (Lyn): 100 to 1000 nM; IC50 (Hck(h) activated): < 10 nM; IC50 (PDK1(h)): > 1000 nM; IC50 (CK1δ(h)): > 1000 nM; IC50 (JAK3(h)): > 1000 nM; IC50 (Lyn(h)): < 10 nM; IC50 (Aurora-A(h)): > 1000 nM; PARP cleavage [1]: induced the apoptotic pathway as shown by PARP cleavage |
| CCn1c(=O)c(-c2ccccc2)cc2cnc(Nc3ncc(CCN(C)C)s3)cc21 [Compound 2, 7-[5-(2-Dimethylamino-ethyl)-thiazol-2-ylamino]-1-ethyl-3-phenyl-1H-[1,6]naphthyridin-2-one] | > 1000 | > 1000 | > 5000 | 1000 to 10000 | > 1000 | > 1000 | 100 to 500 | > 1000 | > 1000 | > 1000 | 10 to 100 | 100 to 500 | 500 to 1000 | > 1000 | > 1000 | > 1000 | > 1000 | 10 to 100 | > 1000 | > 1000 | EC50 (Ramos; 48 h): 1000 to 10000 nM; IC50 (Lyn; Lyn IC50): 1000 to 5000 nM; IC50 (Hck(h) activated): 100 to 500 nM; IC50 (PDK1(h)): > 1000 nM; IC50 (CK1δ(h)): > 1000 nM; IC50 (JAK3(h)): > 1000 nM; IC50 (Lyn(h)): < 10 nM; IC50 (Aurora-A(h)): > 1000 nM |
